Experimental data from paper PMC7531004, “Discovery of gramicidin A analogues with altered activities by multidimensional screening of a one-bead-one-compound library” (Nature Communications, 2020).
Where a SMILES comes first, the peptide text is derived from it. [ ]: non-standard residue; d: D form. The star is where a group is joined. NHCH2CH2OH = OCCN*; For = O=C*

Columns and labels:
[1] = cell viability/%
Outline: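 P388 cells at 1 × 10^4 cells/mL (final) were exposed to library peptides (stocks diluted 250-fold in RPMI1640/10% FBS) for 92 h at 37 °C, 5% CO2. Viable cells were counted by WST-1/1-methoxy PMS (4 h), absorbance 415 nm, and expressed as cell viability (%).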

[2] = H+/Na+ transport assay of bead-derived peptides (one-point); assay type: biochemical; parameters: key: relative activity; mean of two control wells = 1.00; conditions: bead-derived peptide solution, EYPC/EYPG LUVs;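 note: relative to parent gramicidin A activity set to 1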
Outline: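 Values are normalized fluorescence, with Triton X-100 defining 100% and untreated LUVs 0%, and the two control wells averaging 1.00. Vesicles carried 1.0 mM pyranine and included egg yolk phosphatidylglycerol. Peptides were incubated with them 30 min at room temperature.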

[3] = test system: Streptococcus pyogenes SSI-9; assay: Antibacterial activity assay of bead-derived peptides (three concentrations); assay type: cell-based; parameters: key: +++: inhibition by the 640-fold diluted peptide solution; ++: inhibition by the 160-fold diluted solution; +: inhibition by the 40-fold diluted solution; -: no inhibition; conditions: S. pyogenes, bead-derived peptide solution, three concentrations
Outline: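 Library peptide stock applied undiluted, 4-fold and 16-fold diluted in DMSO to S. pyogenes SSI-9 (2 × 10^5 CFU) in cation-adjusted Mueller Hinton broth with 5% laked horse blood. After 18 h at 37 °C, growth judged by visible cell precipitation.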

With `CC(C)C[C@@H](NC(=O)[C@H](Cc1c[nH]c2ccccc12)NC(=O)[C@H](NC(=O)[C@H](Cc1c[nH]c2ccccc12)NC(=O)[C@H](NC(=O)[C@@H](NC(=O)[C@H](NC(=O)[C@H](C)NC(=O)[C@H](NC(=O)[C@H](C)NC(=O)CNC(=O)[C@@H](NC=O)C(C)C)C(C)C)[C@H](C)O)C(C)C)C(C)C)C(C)C)C(=O)N[C@@H](Cc1c[nH]c2ccccc12)C(=O)N[C@@H](C(=O)N[C@@H](Cc1c[nH]c2ccccc12)C(=O)NCCO)C(C)C` [compound 7061] (For-VGA[dV]A[dT]V[dV]W[dV]W[dL]W[dV]W-NHCH2CH2OH) as the compound, how does the viability [1] read?
Its viability is 100%.

And the “H+/Na+ transport activity normalized against the value of 1 (1.00)” value (“H+/Na+ transport activity normalized” for short) [2]?
Its value is 1.01.

What about the antibacterial activity [3] of the same compound?
The antibacterial activity was “-”.

For `CNC(=O)C[C@@H](NC(=O)[C@H](C)NC(=O)[C@@H](CC(C)C)NC(=O)[C@H](C)NC(=O)CNC(=O)[C@@H](NC=O)C(C)C)C(=O)N[C@H](C(=O)N[C@H](CC(C)C)C(=O)N[C@@H](Cc1c[nH]c2ccccc12)C(=O)N[C@H](CC(C)C)C(=O)N[C@@H](Cc1c[nH]c2ccccc12)C(=O)N[C@@H](C(=O)N[C@@H](Cc1c[nH]c2ccccc12)C(=O)N[C@@H](C(=O)N[C@@H](Cc1c[nH]c2ccccc12)C(=O)NCCO)C(C)C)C(C)C)C(C)C` [compound 7119] (For-VGA[dL]A[dD](NHMe)V[dL]W[dL]W[dV]W[dV]W-NHCH2CH2OH), which viability [1] is on record?
The viability was 100%.

And the “H+/Na+ transport activity normalized” value [2]?
The value was 1.15.

And the antibacterial activity [3]?
Its antibacterial activity is “-”.

Which viability [1] does the source give for `CC(C)C[C@@H](NC(=O)[C@H](C)NC(=O)CNC(=O)[C@@H](NC=O)C(C)C)C(=O)N[C@@H](C)C(=O)N[C@H](CC(C)C)C(=O)N[C@H](C(=O)N[C@H](CC(C)C)C(=O)N[C@@H](Cc1c[nH]c2ccccc12)C(=O)N[C@H](CC(C)C)C(=O)N[C@@H](Cc1c[nH]c2ccccc12)C(=O)N[C@@H](C(=O)N[C@@H](Cc1c[nH]c2ccccc12)C(=O)N[C@@H](C(=O)N[C@@H](Cc1c[nH]c2ccccc12)C(=O)NCCO)[C@H](C)O)[C@H](C)O)C(C)C` [compound 7156] (For-VGA[dL]A[dL]V[dL]W[dL]W[dT]W[dT]W-NHCH2CH2OH) here?
Its viability is 100%.

What about the “H+/Na+ transport activity normalized” value [2] of the same compound?
The value was 1.08.

And the antibacterial activity [3]?
The antibacterial activity was “-”.

For `CNC(=O)C[C@@H](NC(=O)[C@@H](NC(=O)[C@H](NC(=O)[C@H](C)NC(=O)[C@@H](CC(C)C)NC(=O)[C@H](C)NC(=O)CNC(=O)[C@@H](NC=O)C(C)C)C(C)C)C(C)C)C(=O)N[C@@H](Cc1c[nH]c2ccccc12)C(=O)N[C@H](CC(C)C)C(=O)N[C@@H](Cc1c[nH]c2ccccc12)C(=O)N[C@H](CC(C)C)C(=O)N[C@@H](Cc1c[nH]c2ccccc12)C(=O)N[C@@H](C(=O)N[C@@H](Cc1c[nH]c2ccccc12)C(=O)NCCO)C(C)C` [compound 7204] (For-VGA[dL]A[dV]V[dD](NHMe)W[dL]W[dL]W[dV]W-NHCH2CH2OH), which viability [1] is on record?
Its viability is 100%.

What about the “H+/Na+ transport activity normalized” value [2] of the same compound?
Its value is 1.17.

And the antibacterial activity [3]?
The antibacterial activity was “-”.

Which viability [1] does the source give for `CC(C)C[C@@H](NC(=O)[C@H](C)NC(=O)[C@H](NC(=O)[C@H](C)NC(=O)CNC(=O)[C@@H](NC=O)C(C)C)[C@H](C)O)C(=O)N[C@H](C(=O)N[C@@H](C(=O)N[C@@H](Cc1c[nH]c2ccccc12)C(=O)N[C@@H](C(=O)N[C@@H](Cc1c[nH]c2ccccc12)C(=O)N[C@@H](C(=O)N[C@@H](Cc1c[nH]c2ccccc12)C(=O)N[C@H](CC(C)C)C(=O)N[C@@H](Cc1c[nH]c2ccccc12)C(=O)NCCO)C(C)C)[C@H](C)O)C(C)C)C(C)C` [compound 7225] (For-VGA[dT]A[dL]V[dV]W[dT]W[dV]W[dL]W-NHCH2CH2OH) here?
The viability was 100%.

And the “H+/Na+ transport activity normalized” value [2]?
The value was 1.14.

What about the antibacterial activity [3] of the same compound?
The antibacterial activity was “-”.

With `CC(C)C[C@@H](NC(=O)[C@H](C)NC(=O)CNC(=O)[C@@H](NC=O)C(C)C)C(=O)N[C@@H](C)C(=O)N[C@H](CC(C)C)C(=O)N[C@H](C(=O)N[C@H](CC(C)C)C(=O)N[C@@H](Cc1c[nH]c2ccccc12)C(=O)N[C@@H](C(=O)N[C@@H](Cc1c[nH]c2ccccc12)C(=O)N[C@@H](C(=O)N[C@@H](Cc1c[nH]c2ccccc12)C(=O)N[C@@H](C(=O)N[C@@H](Cc1c[nH]c2ccccc12)C(=O)NCCO)[C@H](C)O)[C@H](C)O)C(C)C)C(C)C` [compound 7253] (For-VGA[dL]A[dL]V[dL]W[dV]W[dT]W[dT]W-NHCH2CH2OH) as the compound, how does the viability [1] read?
The viability was 45.4%.

What about the “H+/Na+ transport activity normalized” value [2] of the same compound?
Its value is 1.03.

What about the antibacterial activity [3] of the same compound?
The antibacterial activity was “-”.

For `CC(C)C[C@@H](NC(=O)[C@H](Cc1c[nH]c2ccccc12)NC(=O)[C@H](NC(=O)[C@H](Cc1c[nH]c2ccccc12)NC(=O)[C@H](NC(=O)[C@H](Cc1c[nH]c2ccccc12)NC(=O)[C@@H](CC(C)C)NC(=O)[C@@H](NC(=O)[C@H](NC(=O)[C@H](C)NC(=O)[C@H](NC(=O)[C@H](C)NC(=O)CNC(=O)[C@@H](NC=O)C(C)C)C(C)C)[C@H](C)O)C(C)C)C(C)C)C(C)C)C(=O)N[C@@H](Cc1c[nH]c2ccccc12)C(=O)NCCO` [compound 7320] (For-VGA[dV]A[dT]V[dL]W[dV]W[dV]W[dL]W-NHCH2CH2OH), which viability [1] is on record?
Its viability is 58.5%.

What about the “H+/Na+ transport activity normalized” value [2] of the same compound?
The value was 1.04.

What about the antibacterial activity [3] of the same compound?
Its antibacterial activity is “-”.

For `CNC(=O)C[C@@H](NC(=O)[C@H](Cc1c[nH]c2ccccc12)NC(=O)[C@H](NC(=O)[C@H](Cc1c[nH]c2ccccc12)NC(=O)[C@@H](CC(C)C)NC(=O)[C@H](Cc1c[nH]c2ccccc12)NC(=O)[C@@H](CC(C)C)NC(=O)[C@@H](NC(=O)[C@@H](CC(C)C)NC(=O)[C@H](C)NC(=O)[C@H](NC(=O)[C@H](C)NC(=O)CNC(=O)[C@@H](NC=O)C(C)C)C(C)C)C(C)C)C(C)C)C(=O)N[C@@H](Cc1c[nH]c2ccccc12)C(=O)NCCO` [compound 7334] (For-VGA[dV]A[dL]V[dL]W[dL]W[dV]W[dD](NHMe)W-NHCH2CH2OH), which viability [1] is on record?
The viability was 94.6%.

What about the “H+/Na+ transport activity normalized” value [2] of the same compound?
Its value is 1.11.

What about the antibacterial activity [3] of the same compound?
The antibacterial activity was “-”.

With `CC(C)C[C@@H](NC(=O)[C@H](C)NC(=O)CNC(=O)[C@@H](NC=O)C(C)C)C(=O)N[C@@H](C)C(=O)N[C@H](CC(C)C)C(=O)N[C@H](C(=O)N[C@H](CC(C)C)C(=O)N[C@@H](Cc1c[nH]c2ccccc12)C(=O)N[C@H](CC(C)C)C(=O)N[C@@H](Cc1c[nH]c2ccccc12)C(=O)N[C@@H](C(=O)N[C@@H](Cc1c[nH]c2ccccc12)C(=O)N[C@@H](C(=O)N[C@@H](Cc1c[nH]c2ccccc12)C(=O)NCCO)[C@H](C)O)C(C)C)C(C)C` [compound 7512] (For-VGA[dL]A[dL]V[dL]W[dL]W[dV]W[dT]W-NHCH2CH2OH) as the compound, how does the viability [1] read?
Its viability is 100%.

What about the “H+/Na+ transport activity normalized” value [2] of the same compound?
The value was 1.05.

And the antibacterial activity [3]?
The antibacterial activity was “-”.

For `CC(C)C[C@@H](NC(=O)[C@H](C)NC(=O)CNC(=O)[C@@H](NC=O)C(C)C)C(=O)N[C@@H](C)C(=O)N[C@@H](C(=O)N[C@H](C(=O)N[C@H](CC(C)C)C(=O)N[C@@H](Cc1c[nH]c2ccccc12)C(=O)N[C@@H](C(=O)N[C@@H](Cc1c[nH]c2ccccc12)C(=O)N[C@H](CC(C)C)C(=O)N[C@@H](Cc1c[nH]c2ccccc12)C(=O)N[C@H](CC(C)C)C(=O)N[C@@H](Cc1c[nH]c2ccccc12)C(=O)NCCO)C(C)C)C(C)C)C(C)C` [compound 7532] (For-VGA[dL]A[dV]V[dL]W[dV]W[dL]W[dL]W-NHCH2CH2OH), which viability [1] is on record?
The viability was 3.9%.

And the “H+/Na+ transport activity normalized” value [2]?
Its value is 1.03.

And the antibacterial activity [3]?
Its antibacterial activity is “+”.
